Here are results for 25 compounds from US20130261108A1, “COMPOSITIONS AND METHODS FOR MODULATING FARNESOID X RECEPTORS” (IRM LLC, priority 2010, published 2013).

This assay concerns the target T1, human Farnesoid X Receptor (FXR) ligand binding domain (Homo sapiens, UniProt Q96RI1).
T1 construct: purchased Invitrogen
T1 sequence (Q96RI1 193-472 isoform Q96RI1-2): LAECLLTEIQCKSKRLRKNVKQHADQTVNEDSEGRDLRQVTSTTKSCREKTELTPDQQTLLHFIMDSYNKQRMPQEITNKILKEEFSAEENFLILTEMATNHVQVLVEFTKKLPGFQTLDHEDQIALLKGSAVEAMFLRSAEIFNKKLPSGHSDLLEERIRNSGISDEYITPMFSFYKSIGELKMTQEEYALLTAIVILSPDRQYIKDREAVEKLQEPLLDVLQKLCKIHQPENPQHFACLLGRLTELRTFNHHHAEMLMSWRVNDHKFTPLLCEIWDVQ
As to the kind of experiment: Human GST-FXR LBD co-activator interaction assay (FXR HTRF assay). The format is biochemical. As to conditions: GST-FXR LBD with biotin-labeled SRC-1 peptide, FRET/HTRF, 2.5 hours at room temperature; response relative to GW4064; read-out: FXR coactivator interaction assay (HTRF) (EC50). The source says:
Human GST-FXR LBD Co-Activator Interaction Assay.
The FXR HTRF assay is a biochemical assay measuring the interaction between FXR and a coactivator protein (SRC1). The ligand-induced interaction with a coactivator protein is a critical step in transcriptional activation by FXR. Thus, this is an assay designed to measure FXR agonist activity of compounds.
The ligand-dependent interaction between GST-FXR LBD and a peptide derived from Steroid Receptor Coactivator-1 (SRC-1) was monitored by Fluorescence Resonance Energy Transfer (FRET). […] Test compounds (in DMSO solution) and detection reagents (anti-GST-Cryptate labeled antibody and Streptavidin-XL665 conjugate; CisBio) were added in assay buffer containing 50 mM KF. Plates are incubated at room temperature in the dark for 2.5 hours before reading on an Envision (PerkinElmer) at 665 nm and 590 nm.
A negative control (without Streptavidin-XL665) was run with each assay and represented the background fluorescence. A reference FXR agonist, GW4064, was included in each experiment as positive control. The efficacy of each test compound was compared to that of GW4064. At each concentration, the relative activity of the test compound was expressed as Response %=(Rsample−RDMSO)/(Rpositive−RDMSO), where Rsample is the HTRF response (expressed in Delta F %) for the test compound, Rpositive is the maximal response for GW4064 at saturating concentrations, and RDMSO is the response for DMSO control. The EC50 values were calculated using GraphPad Prism (GraphPad Software) using non-linear regression curve fit (log(agonist) vs. response−variable slope (four parameters)).
On the technique in general: Time-resolved FRET reads energy transfer from a long-lived donor to a nearby acceptor.
As for `CCOC(=O)c1ccc2nc(N3CCC(OCc4c(-c5c(OC)cccc5C(F)(F)F)noc4C4CC4)CC3)sc2c1` [Example 2-7A, ethyl 2-[4-({5-cyclopropyl-3-[2-methoxy-6-(trifluoromethyl)phenyl]-1,2-oxazol-4-yl}methoxy)piperidin-1-yl]-1,3-benzothiazole-6-carboxylate], the EC50 came to 736 nM. `O=C(O)c1ccc2nc(N3CCC(OCc4c(-c5c(F)cccc5F)noc4C4CC4)CC3)sc2c1` [Example 2-14, 2-(4-{[5-cyclopropyl-3-(2,6-difluorophenyl)-1,2-oxazol-4-yl]methoxy}piperidin-1-yl)-1,3-benzothiazole-6-carboxylic acid]: the EC50 turned out to be 31 nM. On to `CCOC(=O)c1ccc2nc(N3CCCC(OCc4c(-c5ccccc5OC(F)(F)F)noc4C4CC4)CC3)sc2c1` (stereo not shown) [Example 3-1A, ethyl 2-[4-({5-cyclopropyl-3-[2-(trifluoromethoxy)phenyl]-1,2-oxazol-4-yl}methoxy)azepan-1-yl]-1,3-benzothiazole-6-carboxylate], for which the EC50 was 248 nM. The value for `NC(=O)c1cc(F)c2nc(N3CCC(OCc4c(-c5ccccc5OC(F)(F)F)noc4C4CC4)CC3)sc2c1` [Example 7-4, 2-[4-({5-cyclopropyl-3-[2-(trifluoromethoxy)phenyl]-1,2-oxazol-4-yl}methoxy)piperidin-1-yl]-4-fluoro-1,3-benzothiazole-6-carboxamide] was 272 nM; that for `O=C(O)c1ccc2nc(N3CCC(OCc4c(C5CCCCC5C(F)(F)F)noc4C4CC4)CC3)sc2c1` (stereo not shown) [Example 5, 2-[4-({5-cyclopropyl-3-[2-(trifluoromethyl)cyclohexyl]-1,2-oxazol-4-yl}methoxy)piperidin-1-yl]-1,3-benzothiazole-6-carboxylic acid] was 44 nM. For the compound `Fc1cccc(Cl)c1-c1noc(C2CC2)c1COC1CCN(c2nc3ccc(-c4nn[nH]n4)cc3s2)CC1` [Example 7-6, 2-(4-{[3-(2-chloro-6-fluorophenyl)-5-cyclopropyl-1,2-oxazol-4-yl]methoxy}piperidin-1-yl)-6-(2H-1,2,3,4-tetrazol-5-yl)-1,3-benzothiazole], the concentration giving a half-maximal response (EC50) is 154 nM. The value for `O=C(O)c1ccc2nc(N3CCC(OCc4c(C5CCCC5)noc4C4CC4)CC3)sc2c1` [Example 2-16, 2-{4-[(3-cyclopentyl-5-cyclopropyl-1,2-oxazol-4-yl)methoxy]piperidin-1-yl}-1,3-benzothiazole-6-carboxylic acid] was 263 nM; that for `CCOC(=O)c1ccc2nc(N3CCC(OCc4c(-c5c(F)cccc5Cl)noc4C4CC4)CC3)sc2c1` [Example 2-11A, ethyl 2-(4-{[3-(2-chloro-6-fluorophenyl)-5-cyclopropyl-1,2-oxazol-4-yl]methoxy}piperidin-1-yl)-1,3-benzothiazole-6-carboxylate] was 557 nM; that for `N#Cc1ccc2nc(N3CCC(OCc4c(-c5c(Cl)cccc5Cl)noc4C4CC4)CC3)sc2c1` [Example 6-1, 2-(4-((5-cyclopropyl-3-(2,6-dichlorophenyl)isoxazol-4-yl)methoxy)piperidin-1-yl)benzo[d]thiazole-6-carbonitrile] was 132 nM. The value for `O=C(O)c1ccc2nc(N3CCC(OCc4c(-c5c(Cl)cccc5Cl)noc4C4CC4)CC3)sc2c1` [Example 2-13, 2-(4-{[5-cyclopropyl-3-(2,6-dichlorophenyl)-1,2-oxazol-4-yl]methoxy}piperidin-1-yl)-1,3-benzothiazole-6-carboxylic acid] was 10 nM; that for `CC(C)c1onc(-c2c(Cl)cccc2Cl)c1COC1CCN(c2nc3ccc(C(=O)O)cc3s2)CC1` [Example 4B, 2-(4-((3-(2,6-Dichlorophenyl)-5-isopropylisoxazol-4-yl)methoxy)piperidin-1-yl)benzo[d]thiazole-6-carboxylic acid] was 7 nM; that for `O=C(O)c1ccc2nc(N3CCC(OCc4c(C5CCCCC5)noc4C4CC4)CC3)sc2c1` [Example 2-15, 2-{4-[(3-cyclohexyl-5-cyclopropyl-1,2-oxazol-4-yl)methoxy]piperidin-1-yl}-1,3-benzothiazole-6-carboxylic acid] was 246 nM. The value for `CCOC(=O)c1ccc2nc(N3CCC(OCc4c(-c5ccccc5OC(F)(F)F)noc4C4CC4)CC3)sc2c1` [Example 1-1A, Ethyl 2-(4-((5-cyclopropyl-3-(2-(trifluoromethoxy)phenyl)isoxazol-4-yl)methoxy)piperidin-1-yl)benzo[d]thiazole-6-carboxylate] was 929 nM.

Regarding `Cc1cc(C(=O)O)cc2sc(N3CCC(OCc4c(-c5ccccc5OC(F)F)noc4C4CC4)CC3)nc12` [Example 2-9, 2-[4-({5-cyclopropyl-3-[2-(difluoromethoxy)phenyl]-1,2-oxazol-4-yl}methoxy)piperidin-1-yl]-4-methyl-1,3-benzothiazole-6-carboxylic acid], the EC50 amounted to 26 nM. With `N#Cc1ccc2nc(N3CCC(OCc4c(-c5c(F)cccc5Cl)noc4C4CC4)CC3)sc2c1` [Example 7-5, 2-(4-{[3-(2-chloro-6-fluorophenyl)-5-cyclopropyl-1,2-oxazol-4-yl]methoxy}piperidin-1-yl)-1,3-benzothiazole-6-carbonitrile], the EC50 worked out at 836 nM.

Regarding `COc1cc(C(=O)O)cc2sc(N3CCC(OCc4c(-c5ccccc5OC(F)(F)F)noc4C4CC4)CC3)nc12` [Example 1-2, 2-(4-((5-cyclopropyl-3-(2-(trifluoromethoxy)phenyl)isoxazol-4-yl)methoxy)piperidin-1-yl)-4-methoxybenzo[d]thiazole-6-carboxylic acid], the EC50 amounted to 12 nM.

With `CCOC(=O)c1ccc2nc(N3CCC(OCc4c(-c5c(Cl)cccc5C(F)(F)F)noc4C4CC4)CC3)sc2c1` [Example 2-6A, ethyl 2-[4-({3-[2-chloro-6-(trifluoromethyl)phenyl]-5-cyclopropyl-1,2-oxazol-4-yl}methoxy)piperidin-1-yl]-1,3-benzothiazole-6-carboxylate], the EC50 came to 396 nM. For the compound `O=C(O)c1ccc2nc(N3CCC(OCc4c(C5CC6CCC5C6)noc4C4CC4)CC3)sc2c1` (stereo not shown) [Example 2-17, 2-{4-[(3-{bicyclo[2.2.1]heptan-2-yl}-5-cyclopropyl-1,2-oxazol-4-yl)methoxy]piperidin-1-yl}-1,3-benzothiazole-6-carboxylic acid], the 50% effective concentration (EC50) was 423 nM. On to `COc1cc(C(=O)O)cc2sc(N3CCC(OCc4c(-c5ccccc5C(F)(F)F)noc4C4CC4)CC3)nc12` [Example 1-4, 2-(4-((5-cyclopropyl-3-(2-(trifluoromethyl)phenyl)isoxazol-4-yl)methoxy)piperidin-1-yl)-4-methoxybenzo[d]thiazole-6-carboxylic acid], for which the EC50 came to 4 nM. For `Cc1cc(C(=O)O)cc2sc(N3CCC(OCc4c(-c5ccccc5OC(F)(F)F)noc4C4CC4)CC3)nc12` [Example 2-3, 2-[4-({5-cyclopropyl-3-[2-(trifluoromethoxy)phenyl]-1,2-oxazol-4-yl}methoxy)piperidin-1-yl]-4-methyl-1,3-benzothiazole-6-carboxylic acid], the EC50 was 24 nM.

Take `Clc1cccc(Cl)c1-c1noc(C2CC2)c1COC1CCN(c2nc3ccc(-c4nn[nH]n4)cc3s2)CC1` [Example 6-3, 4-(((1-(6-(2H-tetrazol-5-yl)benzo[d]thiazol-2-yl)piperidin-4-yl)oxy)methyl)-5-cyclopropyl-3-(2,6-dichlorophenyl)isoxazole]: the EC50 stood at 15 nM. Turning to `O=C(O)c1ccc2nc(N3CCC(OCc4c(C5CCCCC5C(F)(F)F)noc4C4CC4)CC3)sc2c1` (single isomer, unassigned) [5 (Diastereomer A)], the EC50 is 245 nM. The value for `CCOC(=O)c1ccc2nc(N3CCC(OCc4c(-c5ccccc5C(F)(F)F)noc4C4CC4)CC3)sc2c1` [Example 2-5A, ethyl 2-[4-({5-cyclopropyl-3-[2-(trifluoromethyl)phenyl]-1,2-oxazol-4-yl}methoxy)piperidin-1-yl]-1,3-benzothiazole-6-carboxylate] was 761 nM.

As to `O=C(O)c1ccc2nc(N3CCCC(OCc4c(-c5ccccc5C(F)(F)F)noc4C4CC4)CC3)sc2c1` (stereo not shown) [Example 3-2B, 2-[4-({5-cyclopropyl-3-[2-(trifluoromethyl)phenyl]-1,2-oxazol-4-yl}methoxy)azepan-1-yl]-1,3-benzothiazole-6-carboxylic acid], the EC50 came out at 8 nM. With `O=C(O)CNC(=O)c1ccc2nc(N3CCC(OCc4c(-c5ccccc5OC(F)(F)F)noc4C4CC4)CC3)sc2c1` [Example 8-1B, 2-(2-(4-((5-cyclopropyl-3-(2-(trifluoromethoxy)phenyl)isoxazol-4-yl)methoxy)piperidin-1-yl)benzo[d]thiazole-6-carboxamido)acetic acid], the EC50 turned out to be 20 nM.

The term EC50 denotes the midpoint of the concentration-response curve.
